Laboratory results from US6642263B2, “Modulators of Rho C activity” (Iconix Pharmaceuticals Inc., priority 2001, dated 2003).

Molecular target: T1, RhoC (Homo sapiens, UniProt P08134)
T1 construct: cDNAs corresponding to the complete open reading frame of RhoC were PCR amplified; expressed in transfected cells; host or cells: Saccharomyces cerevisiae strain EIS20-2B, pARC35B-derived expression plasmid integrated at LYS2, galactose-induced
Experiment: Yeast growth restoration assay (RhoC expressed in yeast, surrogate genetic assay)
Type: cell-based, mammalian
Conditions: retested in dilutions from 0.5 μM to 128 μM; 30° C., 40-42 hrs, OD600
Description: Compounds of the invention are assayed for activity using any convenient biochemical or biological assay. For example, one can examine compounds for binding to recombinantly-expressed RhoC, assay compounds for their ability to reverse a RhoC-induced phenotype in a heterologous cell (see e.g., WO99/24563, incorporated herein by reference), or using one or more of the experimental protocols described in the references cited herein. […] Compounds were also examined for inhibition of stress fibers, by stimulating NIH 3T3 cells with 10 μM LPA in DMEM+0.2% FBS in the presence of test compounds for 4 hours.
(A) cDNAs corresponding to the complete open reading frame of RhoC were PCR amplified from pooled total cDNAs initially synthesized from placental, fetal brain, and fetal liver poly(A)^+ mRNAs (Clontech Laboratories, Inc.). […]
After PCR, approximately 200 ng of amplified cDNA was cotransformed with approximately 100 ng of vector into yeast and transformants were selected for leucine prototrophy. […] Plasmids from at least three independent transformants were subsequently rescued into the E. coli strain DH5alpha via electroporation, and further characterized by restriction enzyme analysis and DNA sequencing of the RhoC open reading frame. […]

T1 sequence (P08134 whole entry): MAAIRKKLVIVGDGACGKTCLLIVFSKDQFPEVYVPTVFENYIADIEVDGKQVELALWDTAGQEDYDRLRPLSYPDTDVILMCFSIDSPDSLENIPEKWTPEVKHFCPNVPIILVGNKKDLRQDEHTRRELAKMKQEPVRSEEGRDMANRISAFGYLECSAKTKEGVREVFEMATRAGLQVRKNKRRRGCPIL

Cc1ccc(NS(=O)(=O)CSc2nc3ccccc3s2)cc1 [2-(4-methylphenylsulfamyl)methylthio-benzo[d]thiazole]
potency / activity (growth restoration of RhoC-expressing yeast): only weak activity
